Tests used:
[1] = Human safety risk assessment (aggregate dietary and non-dietary exposure, current EPA practice); design: species or system US Population
Excerpt: Human safety risk assessments have been conducted, using current EPA practice, for all the current and proposed new uses of indaziflam. Chronic aggregate dietary exposure (food and water) will utilize less than 4% of the cPAD for the US Population. Acute aggregate dietary exposure (food and water) for the U.S. population, utilizes 7% of the aPAD.

medusahead = assay: Pre-emergence control of medusahead; format: in vivo, Taeniatherum caput-medusae
Excerpt: (§1) This provides land managers with a new opportunity to start the process of eliminating the annual grass seed bank. […] This makes indaziflam an effective tool to start the process of depleting the invasive annual grass soil seed bank. Furthermore, providing long-term control of annual grasses with indaziflam results in both reduced thatch that serves as fuel for highly destructive wildfires, and the effective creation of firebreaks that protect communities of desirable perennials. As a result, native ecosystems are promoted, allowing for increased habitat for animal species of concern including wildlife and pollinators.

cheatgrass = assay: Pre-emergence control of cheatgrass; format: in vivo, Bromus tectorum
Excerpt: as §1

[2] = Ruminant metabolism studies with 14C-labelled indaziflam; format: in vivo, ruminants; conditions: [triazine-2,4-14C] and [indane-3-14C] indaziflam
Excerpt: Ruminant metabolism studies have been conducted with both [triazine-2,4-^14C] indaziflam and [indane-3-^14C] indaziflam according to current EPA guidelines. Accumulation into the edible tissues was low and the metabolism of indaziflam in ruminants is well understood.

ventenata = assay: Pre-emergence control of ventenata; format: in vivo, Ventenata dubia
Excerpt: as §1

[3] = pH 7; cited from earlier work
[4] = Dairy cow feeding study: total indaziflam residue in milk and tissues after 29 consecutive days of dosing; format: in vivo, lactating Holstein dairy cows (Bos taurus)
Experimental: A feeding study was conducted to measure total indaziflam residue in milk, cream (milk fat), skim milk (whey), mesenteric (omental) fat, perirenal fat, subcutaneous fat, liver, kidney, muscle and excrement (feces or faeces) from lactating Holstein dairy cows (Bos taurus) following 29 consecutive days of dosing with indaziflam. The base daily dose of indaziflam was calculated to be 31 mg/kg dry matter feed. Four groups of cows were fed at 0 (control—two cows), 31 (1×—three cows), […] (3×—three cows) and 311 (10×—seven cows) mg/kg dry matter feed.
Milk was collected twice daily from all dose groups, morning and evening. Doses were administered after the morning milking. Milk was subsampled for analysis from the controls and all dose groups on study days 0, 2, 4, 7, 10, 14, 17, 21, 25, and 28. […]
The remaining cows (one control and four from the 10× dose level) entered the depuration phase of the study. […] Milk, tissues and excrement from the cows sacrificed at each interval were analyzed to monitor the decline of the residues of indaziflam and its metabolites. […]
The individual analyte derived residues were converted to indaziflam parent equivalents and summed to give a total indaziflam residue. The limit of quantitation (LOQ) for total indaziflam residue was 0.05 ppm for fat, kidney, muscle and liver. […]

Structure (SMILES): Cc1ccc2c(c1)[C@H](Nc1nc(N)nc(C(C)F)n1)[C@@H](C)C2 (mixture of isomers) [indaziflam, N2-[(1R,2S)-2,3-dihydro-2,6-dimethyl-1H-inden-1-yl]-6-[(1RS)-1-fluoroethyl]-1,3,5-triazine-2,4-diamine]
- Non-dietary and aggregate margins of exposure (food, drinking water, and non-dietary) [1]: above the Level of Concern
- Acute aggregate dietary exposure (food and water), utilization of the aPAD ([1]; U.S. population): 7 % of the aPAD
- Chronic aggregate dietary exposure (food and water), utilization of the cPAD ([1]; US Population, all current and proposed new uses): less than 4 % of the cPAD
- Pre-emergence effectiveness compared with imazapic (medusahead): significantly more effective
- Pre-emergence effectiveness compared with imazapic (cheatgrass; cheatgrass): significantly more effective
- Long-term control of cheatgrass (cheatgrass; single application): at least three years
- Accumulation into the edible tissues [2]: low
- Pre-emergence effectiveness compared with imazapic (ventenata): significantly more effective
- log Kow [3]: 2.8
- Average total indaziflam residues in muscle ([4]; 1× rate, Day 29, LOQ 0.05 ppm): < LOQ
- Residues in all tissues and milk in the depuration phase ([4]; 10× dose cows, 3 to 21 days after end of dosing): declined rapidly

From patent publication US11917996B2, “Herbicidal compositions for animal grazelands and methods for applying the same” (DISCOVERY PURCHASER CORPORATION, priority 2018, dated 2024)
